Data taken from patent publication US20080058515A1, “Chemical Compounds” (priority 2003, published 2008).

Molecular target: T1, Serum Glucocorticoid-regulated Kinase-1 (SGK-1) (Homo sapiens, UniProt O00141, S422D)
T1 construct: a truncated form of the human enzyme that included amino acids 61-431; 6xHis (N); made in house
T1 sequence (O00141 61-431 S422D): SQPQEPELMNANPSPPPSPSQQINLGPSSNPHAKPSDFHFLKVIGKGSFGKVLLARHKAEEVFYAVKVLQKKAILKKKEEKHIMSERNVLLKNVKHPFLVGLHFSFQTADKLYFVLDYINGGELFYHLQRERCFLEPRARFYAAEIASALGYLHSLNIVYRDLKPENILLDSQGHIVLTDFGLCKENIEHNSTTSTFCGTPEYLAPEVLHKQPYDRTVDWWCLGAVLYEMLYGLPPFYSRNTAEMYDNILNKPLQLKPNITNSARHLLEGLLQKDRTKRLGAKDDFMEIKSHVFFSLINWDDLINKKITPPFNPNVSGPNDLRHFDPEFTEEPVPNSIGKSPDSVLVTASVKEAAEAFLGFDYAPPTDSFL
Test: SGK-1 Enzyme Assay (SGK1e), substrate phosphorylation, scintillation proximity
Assay type: biochemical
Conditions: truncated human SGK-1 (aa 61-431, S422D), 10 μM ATP, Crosstide substrate
Description: Compounds of the present invention were tested for Serum Glucocorticoid-regulated Kinase-1 (SGK-1) protein serine/threonine kinase inhibitory activity in substrate phosphorylation assays using enzyme purified from a baculovirus expression vector system. The recombinant baculovirus was made to express the intracellular domain of SGK-1 (GenBank accession number MD41091). The virus expressed a truncated form of the human enzyme that included amino acids 61-431. Serine422 was replaced with Aspartic acid to activate the enzyme, and 6 Histidine residues were added at the amino terminus to facilitate purification. The protein was purified using Ni-NTA agarose affinity chromatography. The peptide substrate was an N-terminal biotinylated sunthetic peptide named Crosstide (biotin-Ahx-GRPRTSSFAEG-OH), corresponding to the sequence in GSK3 surrounding the serine phosphorylated by MAPKAP Kinase-1/Rsk and p70 S6 Kinase.
The method measures the ability of the isolated enzyme to catalyze the transfer of the γ-phosphate from ATP onto serine/threonine residues in the biotinylated Crosstide. Reactions were performed in 96-well polystyrene round-bottom plates in a final volume of 30 uL. Reaction mixtures contained 62.5 mM HEPES (pH 7.4), 10 mM MgCl2, 0.1 mM EDTA, 0.0024% TWEEN-20, and 1 mM DTT (added fresh daily), 10 μM ATP, 0.2 μCi [[v-^33P] ATP per reaction, 4 μM Crosstide peptide substrate, and 1 nM SGK1 enzyme. Reactions were initiated by adding the indicated enzyme. The reaction was allowed to proceed for 2 hours, then terminated by the addition of 50 mM EDTA and quantified using a scintillation proximity assay procedure as described (McDonald, O. B., Antonsson, B., Arkinstal, S., Marshall, C. J., and Wood, E. R. (1999) Analytical Biochemistry, 268, 318-329).
Compounds under analysis were dissolved in Me2SO to 1 mM and serially diluted 1 to 3 with Me2SO through eleven columns of a 96 well plate. 1 uL of each concentration was transferred to the corresponding well of the assay plate. This created a final compound concentration range from 0.56 nM to 33.3 uM.
The data for dose responses were plotted as % Control calculated with the data reduction formula 100*(U1-C2)/(C1-C2) versus concentration of compound and fitted to the curve described by:
where Vmax is the upper asymptote and K is the IC50

| SMILES | IC50 [µM] |
| --- | --- |
| O=C(/C=C/c1n[nH]c2ccccc12)Nc1ccc(C(=O)NCCc2cccnc2)cc1 [Example 36, 4-(((2E)-3-(1H-indazol-3-yl)prop-2-enoyl)amino)-N-(2-pyridin-3-ylethyl)benzamide] | < 1 |
| CCN(Cc1ccncc1)C(=O)c1cccc(NC(=O)/C=C/c2n[nH]c3ccccc23)c1 [Example 41, N-ethyl-3-(((2E)-3-(1H-indazol-3-yl)prop-2-enoyl)amino)-N-(pyridin-4-ylmethyl)benzamide] | < 1 |
| O=C(/C=C/c1n[nH]c2ccccc12)Nc1ccc2ncsc2c1 [Example 1, (2E)-N-(1,3-benzothiazol-6-yl)-3-(1H-indazol-3-yl)-2-propenamide] | < 1 |
| N#Cc1ccccc1NC(=O)/C=C/c1n[nH]c2ccccc12 [Example 3, (2E)-N-(2-cyanophenyl)-3-(1H-indazol-3-yl)-2-propenamide] | < 1 |
| O=C(/C=C/c1n[nH]c2ccccc12)Nc1cccc(C(=O)c2ccccc2)c1 [Example 12, (2E)-N-(3-benzoylphenyl)-3-(1H-indazol-3-yl)-2-propenamide] | < 1 |
| O=C(/C=C/c1n[nH]c2ccccc12)N1CCC2(CC1)C(=O)NCN2c1ccccc1 [Example 30, 8-[(2E)-3-(1H-indazol-3-yl)prop-2-enoyl]-1-phenyl-1,3,8-triazaspiro[4.5]decan-4-one] | < 1 |
| CCCN(C)CCOc1ccc(NC(=O)/C=C/c2n[nH]c3ccccc23)cc1OC [Example 19, (2E)-3-(1H-indazol-3-yl)-N-(3-methoxy-4-{2-[methyl(propyl)amino]ethoxy}phenyl)-2-propenamide] | < 1 |
| COc1cc(NC(=O)/C=C/c2n[nH]c3ccccc23)ccc1OCCN(C(C)C)C(C)C [Example 15, (2E)-N-[4-[2-(diisopropylamino)ethoxy]-3-methoxyphenyl]-3-(1H-indazol-3-yl)-2-propenamide] | < 1 |
| CC(C)CNC(=O)/C=C/c1n[nH]c2ccccc12 [Example 24, (2E)-3-(1H-indazol-3-yl)-N-isobutylprop-2-enamide] | 1 to 10 |
| CCOC(=O)C1CCN(C(=O)/C=C/c2n[nH]c3ccccc23)CC1 [Example 27, Ethyl 1-[(2E)-3-(1H-indazol-3-yl)prop-2-enoyl]piperidine-4-carboxylate] | 1 to 10 |
